This data set in a line: Fluorophore detection in interstitial fluid (ISF) of rats after IV or PO dosing, subcutaneous optical PMMA fiber and reader device. The conditions noted are these: rat, in vivo. The source says:
Study Protocol: The purpose of the study was to investigate in an acute or semi-chronic rat trial set-up if fluorophores are detectable in the ISF (InterStitial Fluid) when injected IV or given to the rat Per Oral (PO). Four rat subjects (Rat 001, Rat 002, Rat 003, and Rat 004) were included in the study. The procedure of the study was as follows: Rat subjects were Sprague Dawley rats, male, Diet Induced Obese (DIO). For each rat, the rat was anaesthesized, shaved and cleaned on the back for PMMA optical fiber insertion. A tail venous catheter was placed and two 250 um optical PMMA fibers were placed in the subcutaneous fat tissue of the DIO rat. The base and tape of the sensor unit was sutured to the skin.
For Rats 001 and 002, a reader device suitable for indocyanine green dye detection was mounted. [ . . . ] Rat 002 died during oral dosing while under anesthesia due to lack of swallowing reflex.
For Rats 003 and 004 reader devices suitable for Alexa Fluor 594™ (AF594) detection were mounted. Recording began using RF data transfer (GST protocol, MDT Diabetes). A first IV injection of 0.01 mg AF594 was injected (1 mL into tail vein). Rise and decay of fluorescence was observed before a second injection of 1 mL of 0.01 mg AF594 into the tail vein. Anesthesia then was removed and the rat was placed into a cage. […]

As to `CC1(C)C(/C=C/C=C/C=C/C=C2\N(CCCCS(=O)(=O)O)c3ccc4ccccc4c3C2(C)C)=[N+](CCCCS(=O)(=O)[O-])c2ccc3ccccc3c21` [Indo Cyanine Green], the “clearance from the ISF after IV dosing” value is on record as “relatively fast clearance” and the “signal in ISF after IV dosing” value is given as “distinct signals”.
